We go through 12 compounds from ChEMBL document CHEMBL3232765, “Anti-mycobacterial activity of 1,3-diaryltriazenes” (Eur J Med Chem, 2014).

As usually defined, the IC50 is the concentration needed to halve the response being measured. A lower IC50 goes with higher potency. Broadly, the IC90 is the concentration needed for an effect of 90%. Broadly, the IC99 is the concentration needed for an effect of 99%.

Where only a bound is given, the exact number is not on record here.

In this experiment the test system is Mycobacterium tuberculosis. The experiment can be described thus: Antimycobacterial activity against Mycobacterium tuberculosis H37Rv after 6 days by luciferase reporter gene assay. The settings on record: 144 h. It counts as functional, organism-based. For orientation: A reporter such as luciferase makes a cellular process visible.
`FC(F)(F)c1ccc(Cl)c(N=NNc2cc(C(F)(F)F)ccc2Cl)c1` gave an IC50 of 97.5 µM, an IC90 greater than 100 µM and an IC99 greater than 100 µM.

`FC(F)(F)c1cc(Cl)ccc1/N=N/Nc1ccc(Cl)cc1C(F)(F)F` returned an IC50 of 93 µM, an IC90 greater than 100 µM and a concentration for an effect of 99% (IC99) greater than 100 µM.

Turning to `COc1ccc(/C=C/C(=O)N(/N=N/c2cc(C(F)(F)F)ccc2Cl)c2cc(C(F)(F)F)ccc2Cl)c(OC)c1`, it took 72.3 µM to reach half-maximal inhibition (IC50), the IC90 is greater than 100 µM and the IC99 is greater than 100 µM.

The compound `COc1ccc(/C=C/C(=O)N(/N=N/c2ccc(Cl)c(C(F)(F)F)c2)c2ccc(Cl)c(C(F)(F)F)c2)c(OC)c1` showed an IC50 of 52 µM, a concentration for an effect of 90% (IC90) of 80.8 µM and a 99% effect concentration (IC99) of 84.4 µM.

`COc1cc(/C=C/C(=O)N(/N=N/c2ccc(Cl)c(C(F)(F)F)c2)c2ccc(Cl)c(C(F)(F)F)c2)cc(OC)c1` returned an IC50 of 71.3 µM, an IC90 greater than 100 µM and a concentration for an effect of 99% (IC99) greater than 100 µM.

In the case of `Fc1ccc(C(F)(F)F)cc1/N=N/Nc1cc(C(F)(F)F)ccc1F`, 58.9 µM corresponded to half-maximal inhibition (IC50), the IC90 was greater than 100 µM and the IC99 was greater than 100 µM.

For the compound `N#Cc1c(F)cccc1/N=N/Nc1cccc(F)c1C#N`, 62.3 µM corresponded to half-maximal inhibition (IC50), the 90% effect concentration (IC90) was greater than 100 µM and the IC99 was greater than 100 µM.

`Fc1ccc(/N=N/Nc2ccc(F)cc2C(F)(F)F)c(C(F)(F)F)c1` returned an IC50 of 85.5 µM, a 90% effect concentration (IC90) greater than 100 µM and a concentration for an effect of 99% (IC99) greater than 100 µM.

In turn, `N#Cc1cc(/N=N/Nc2ccc(F)c(C#N)c2)ccc1F` returned an IC50 greater than 100 µM, a concentration for an effect of 90% (IC90) greater than 100 µM and an IC99 greater than 100 µM.

`Clc1ccc(/N=N/Nc2ccc(Cl)cc2Cl)c(Cl)c1`: the IC50 is greater than 100 µM, the 90% effect concentration (IC90) was greater than 100 µM and the concentration for an effect of 99% (IC99) is greater than 100 µM.

Compound `COc1ccc(/C=C/C(=O)N(/N=N/c2ccc(Cl)cc2C(F)(F)F)c2ccc(Cl)cc2C(F)(F)F)c(OC)c1` gave an IC50 of 83.1 µM, an IC90 greater than 100 µM and an IC99 greater than 100 µM.

Compound `NNC(=O)c1ccncc1` [ISONIAZID] yielded an IC50 of 0.04 µM, an IC90 of 0.11 µM and an IC99 of 0.13 µM.
